The term pKa denotes the negative logarithm of the acid dissociation constant.

In series [1] the test system is lymphoblastoid leukemia cells. Conditions: 5 nmol/L; cited from earlier work.
The test system of series [2] is Mature erythroid colony forming units (mBFU-E). Conditions: cited from earlier work.
Series [3] has as its system Acute myelogenous leukemia. The following applies: 50% growth inhibition, read-out: IC50 (nmol/L)**; cited from earlier work.
Series [4] concerns T lymphocyte colony forming cells. Conditions: cited from earlier work.
In another series the test system is B cells. Conditions: 50% growth inhibition, read-out: IC50 (nmol/L)**; cited from earlier work.
A further series concerns myeloid cells. Conditions: cited from earlier work.
The test system of a further series is Peripheral lymphocytes. Conditions: cited from earlier work.
A further series has as its system neuroblastoma cell line. Conditions: cited from earlier work.
Series [5] relates to Epstein Barr B lymphoblastoid cell lines. The series can be described thus: in vitro sensitivity, Epstein Barr B lymphoblastoid cell lines. It counts as cell-based. The following applies: 50% growth inhibition, no source mark printed, read-out: IC50 (nmol/L)**. The text has this: (§1) The in vitro effect of cladribine (2-CdA) has been studied on a number of cell lines, showing different degrees of sensitivity, represented by the IC50 value (concentration required to inhibit 50% of growth) on a case-by-case basis.

For series [6], the system named is Erythroid progenitor cells. The following applies: decreases as maturation state rises; cited from earlier work.
The subject of series [7] is human melanoma cell lines. The following applies: some human melanoma cell lines; cited from earlier work.
Series [8] concerns erythroid colony forming cells (CFU-E). Conditions: cited from earlier work.
Series [9] relates to granulocyte-macrophage colony forming units and erythrocyte burst forming units. The following applies: more immature progenitors (granulocyte-macrophage colony forming units and erythrocyte burst forming units); approximately; cited from earlier work.
The subject of series [10] is dividing and non-dividing cells. The following applies: cited from earlier work.
For the next series, the system named is T cells. The following applies: 50% growth inhibition, read-out: IC50 (nmol/L)**; cited from earlier work.
The next series has as its system Hairy cell leukemia. The following applies: 50% growth inhibition, read-out: IC50 (nmol/L)**; cited from earlier work.
In series [11] the test system is Acute lymphoblastic leukemia. Conditions: drug concentration required to inhibit 50% of growth, read-out: IC50 (nmol/L)**; cited from earlier work.
A further series concerns Normal bone marrow. Conditions: cited from earlier work.
Series [12] concerns Chronic lymphocytic leukemia. The following applies: 50% growth inhibition, read-out: IC50 (nmol/L)**; cited from earlier work.
Series [13] deals with cell lines of bone tumors. Conditions: in vitro; cited from earlier work.
The subject of another series is Non-Hodgkin's lymphoma. The following applies: 50% growth inhibition, read-out: IC50 (nmol/L)**; cited from earlier work.
Another series deals with Multiple myeloma cells. The following applies: cited from earlier work.
The next series relates to DAUDI cell line. Description: in vitro sensitivity, DAUDI cell line. Type of series: cell-based. The following applies: Homo sapiens, 50% growth inhibition, Data Bio Sidus, read-out: IC50 (nmol/L)**.
Text: as §1

For a further series, the system named is myeloid progenitor cell. The following applies: dose-dependent basis; cited from earlier work.
For series [14] the following is noted: H-9 proton; cited from earlier work.

Regarding `Nc1nc(Cl)nc2c1ncn2[C@H]1C[C@H](O)[C@@H](CO)O1` [Cladribine, 2-chloro-2′-deoxyadenosine], in series [1], the thymidine uptake result is listed as “inhibits”. Further, the IC50 was 38 nM in series [2]; 20 nmol/L in [3]; 6 to 67 nmol/L in the series on B cells; 5 to 70 nM in the series on myeloid cells; 60 nM with neuroblastoma cell line; 200 nmol/L in series [5]. Moreover, the IC50 in series [8] is 56 nM; in series [9], 16 to 20 nM; with T cells, 3 to 338 nmol/L; in the series on Hairy cell leukemia, 31 nmol/L; in series [11] it was 34 nmol/L; in the series on Normal bone marrow (Normal bone marrow, 50% growth inhibition, read-out: IC50 (nmol/L)**) it was 15 nmol/L. Moreover, the IC50 in series [12] was 39 nmol/L; with Non-Hodgkin's lymphoma it was 87 nmol/L; in the series with Multiple myeloma cells (Multiple myeloma, 50% growth inhibition, read-out: IC50 (nmol/L)**), 1750 nmol/L; in the series on DAUDI cell line, 210 nmol/L. For the same molecule, the “concentration needed for a complete inhibition of lymphoid colony formation” value in series [4] (complete inhibition) was 1280 nmol/L. For the same molecule, in [4] (dose-dependent basis), the “T lymphocyte colony forming cells” value is recorded as “inhibits”. Further, the “viability of peripheral lymphocytes” value with Peripheral lymphocytes (100 nmol/l during 24 hours, followed by washing) is “retain viability”. Also, the cells die in the series on Peripheral lymphocytes (seven-day incubation with 8 nmol/L) is given as 60%. Moreover, the “sensitivity of erythroid progenitor cells” value in series [6] is “dose-dependent sensitivity”. In series [7], the IC37 is 12 to 22 nmol/L. Also, the “activity in dividing and non-dividing cells” value in [10] is recorded as “active”. In addition, the “granulocyte and macrophage colony formation” value in the series with Normal bone marrow (5 nmol/L, normal bone marrow) is listed as “no effect”. The “activity on cell lines of bone tumors” value in [13] was “low activity”. For the same molecule, the “activity on multiple myeloma cells” value in the series with Multiple myeloma cells (in vitro) is “low activity”. Also, the “myeloid progenitor cell growth” value in the series on myeloid progenitor cell is recorded as “inhibits”.
With `Nc1ncnc2nc[nH]c12` [adenine], the pKa in series [14] is on record as 9.80.

The values above are taken from US20020052491A1, “Method for the production of 2-chloro-2' -deoxyadenosine (cladribine) and its 3,5-di-O-p-toluoyl derivative” (priority 1999, published 2002).
